Experimental findings from US10414811B2, “Protease-resistant lipidated GLP-1 analogs” (MEDIMMUNE LIMITED, priority 2015, dated 2019) are described below.

Each structure is given as a SMILES string. Where two headings read alike, the source gives them in different places. Numbered stars: 1 amine (or outer) side, 2 acyl side, 3 side chain; on linkers, the order of the positions; unused ones are H or OH. Square brackets hold non-standard residues; d marks the D form. Side chains are listed from the residue outwards. Peptide text beside a SMILES is read from it. * marks the point of attachment. γGlu = O=C(O)[C@H](CCC(=O)[*:2])N[*:1]; Palmitoyl = CCCCCCCCCCCCCCCC(=O)*; αMeF = C[C@](N)(Cc1ccccc1)C(=O)O; αMeK = C[C@](N)(CCCCN)C(=O)O; Lauroyl = CCCCCCCCCCCC(=O)*; αMeS = C[C@](N)(CO)C(=O)O; AEEA = NCCOCCOCC(=O)O; Aib = CC(C)(N)C(=O)O

Format in all cases: cell-based
The target in assay [1] is T1, human GLP-1 receptor (GLP-1R) (Homo sapiens, UniProt P43220).
T1 construct: expressed in transfected cells
T1 sequence (P43220 24-463): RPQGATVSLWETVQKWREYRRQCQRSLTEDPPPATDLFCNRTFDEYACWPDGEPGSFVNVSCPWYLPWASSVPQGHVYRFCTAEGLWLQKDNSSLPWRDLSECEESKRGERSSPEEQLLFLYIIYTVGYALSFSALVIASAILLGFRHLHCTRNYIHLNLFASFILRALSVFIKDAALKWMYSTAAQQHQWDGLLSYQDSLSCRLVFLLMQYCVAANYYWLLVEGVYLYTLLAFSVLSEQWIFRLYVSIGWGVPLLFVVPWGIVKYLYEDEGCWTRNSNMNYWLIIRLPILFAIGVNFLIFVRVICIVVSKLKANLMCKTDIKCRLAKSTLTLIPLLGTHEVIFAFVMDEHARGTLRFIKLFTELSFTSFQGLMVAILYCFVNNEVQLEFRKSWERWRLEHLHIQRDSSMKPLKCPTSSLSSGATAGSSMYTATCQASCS
The experiment in a line: cAMP assay, human GLP-1R cells. A digest of the protocol: (§1)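 Peptide-stimulated cAMP measured by two-step HTRF after a 30 min room-temperature incubation with receptor-expressing cells (hGLP-1R, hGIPR at 1×10^5 cells/ml; hGCGR at 2×10^5 cells/ml). Duplicate dilutions; EC50 from 4-parameter logistic fit of % Delta F.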

Assay [2] has as its target T2, human glucagon receptor (GCGR) (Homo sapiens, UniProt P47871).
T2 construct: expressed in transfected cells
The experiment in a line: cAMP assay, human GCGR cells. A digest of the protocol: as §1
In general terms: cAMP levels reflect the balance of adenylyl cyclase and phosphodiesterase activity.

Assay [3] concerns the target T3, human glucose-dependent insulinotropic peptide receptor (GIPR) (Homo sapiens, UniProt P48546).
T3 construct: expressed in transfected cells
T3 sequence (P48546 22-466): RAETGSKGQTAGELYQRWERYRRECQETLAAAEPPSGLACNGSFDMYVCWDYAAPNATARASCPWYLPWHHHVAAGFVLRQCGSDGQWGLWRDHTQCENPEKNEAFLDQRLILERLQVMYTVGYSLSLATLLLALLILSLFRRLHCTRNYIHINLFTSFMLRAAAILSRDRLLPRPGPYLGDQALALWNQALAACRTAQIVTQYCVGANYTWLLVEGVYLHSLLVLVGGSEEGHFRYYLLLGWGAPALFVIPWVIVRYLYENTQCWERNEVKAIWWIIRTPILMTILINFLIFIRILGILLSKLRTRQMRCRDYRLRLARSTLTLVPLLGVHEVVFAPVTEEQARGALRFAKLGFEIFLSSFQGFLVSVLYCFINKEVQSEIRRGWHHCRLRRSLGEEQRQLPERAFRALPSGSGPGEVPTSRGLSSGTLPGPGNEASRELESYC
The experiment in a line: cAMP assay, human GIPR cells. The method, boiled down:
as §1

[4] abbreviates: cAMP assay, first determination (n1), read-out: Primary assay EC50 GLP-1R n1.
[5] abbreviates: cAMP assay, second determination (n2), read-out: Primary assay EC50 GLP-1R n2.
The mark [6] stands for this setting: mean of n1 and n2, read-out: Mean pM GLP-1R.
Setting [7] is: cAMP assay, first determination (n1), read-out: Primary assay EC50 Gluc-R (n1).
[8] abbreviates: cAMP assay, second determination (n2), read-out: Primary assay EC50 Gluc-R (n2).
[9] abbreviates: cAMP assay, first determination (n1), read-out: Primary assay EC50 GIP-R (n1).
The mark [10] stands for this setting: cAMP assay, second determination (n2), read-out: Primary assay EC50 GIP-R (n2).

T2 sequence (P47871 26-477): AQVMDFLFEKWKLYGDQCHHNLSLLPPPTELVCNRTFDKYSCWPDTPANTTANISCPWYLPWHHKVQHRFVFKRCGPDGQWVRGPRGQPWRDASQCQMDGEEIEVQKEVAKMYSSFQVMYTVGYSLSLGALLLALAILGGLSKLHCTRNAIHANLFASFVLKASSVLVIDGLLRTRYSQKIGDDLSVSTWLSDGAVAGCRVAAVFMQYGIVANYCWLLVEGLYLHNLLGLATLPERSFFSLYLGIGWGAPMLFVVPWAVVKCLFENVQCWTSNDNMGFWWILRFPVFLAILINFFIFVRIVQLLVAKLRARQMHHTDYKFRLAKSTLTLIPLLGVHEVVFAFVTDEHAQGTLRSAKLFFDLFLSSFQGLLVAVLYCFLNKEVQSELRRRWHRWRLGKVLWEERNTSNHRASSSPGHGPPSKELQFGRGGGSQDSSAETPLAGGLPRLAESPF

Turning to `CCCCCCCCCCCCCCCC(=O)N[C@@H](CCC(=O)NCCCC[C@H](NC(=O)[C@@H](N)Cc1c[nH]cn1)C(=O)N[C@@H](CCC(=O)O)C(=O)NCC(=O)N[C@@H](CO)C(=O)N[C@@](C)(Cc1ccccc1)C(=O)N[C@H](C(=O)N[C@@H](CO)C(=O)N[C@@H](CC(=O)O)C(=O)N[C@H](C(=O)N[C@@](C)(CO)C(=O)N[C@@H](CO)C(=O)N[C@@](C)(Cc1ccccc1)C(=O)N[C@@H](CC(C)C)C(=O)N[C@@H](CCC(=O)O)C(=O)NCC(=O)N[C@@H](CCC(=O)O)C(=O)N[C@@H](C)C(=O)N[C@@H](C)C(=O)N[C@@](C)(CCCCN)C(=O)N[C@@H](CCC(=O)O)C(=O)N[C@@](C)(Cc1ccccc1)C(=O)N[C@H](C(=O)N[C@@H](C)C(=O)N[C@@](C)(Cc1ccccc1)C(=O)N[C@H](C(=O)N[C@H](C(=O)N[C@@](C)(CCCCN)C(=O)NCC(=O)NCC(N)=O)C(C)C)C(C)C)[C@@H](C)CC)C(C)C)[C@@H](C)O)C(=O)O` [compound 98], the EC50 is at least 28000 pM in assay [1] (setting [4]); at least 28000 pM in assay [1] (setting [5]); at least 27500 pM in assay [1] (setting [6]); at least 28 nM in assay [2] (setting [7]); at least 28 nM in assay [2] (setting [8]); at least 28 nM in assay [3] (setting [9]). Also, the EC50 in assay [3] (setting [10]) was at least 28 nM.

For the molecule `CCCCCCCCCCCCCCCC(=O)N[C@@H](CCC(=O)NCCCC[C@H](NC(=O)CNC(=O)CNC(=O)[C@](C)(CCCCN)NC(=O)[C@@H](NC(=O)[C@@H](NC(=O)[C@](C)(Cc1ccccc1)NC(=O)[C@H](C)NC(=O)[C@@H](NC(=O)[C@](C)(Cc1ccccc1)NC(=O)[C@H](CCC(=O)O)NC(=O)[C@](C)(CCCCN)NC(=O)[C@H](C)NC(=O)[C@H](C)NC(=O)[C@H](CCC(=O)O)NC(=O)CNC(=O)[C@H](CCC(=O)O)NC(=O)[C@H](CC(C)C)NC(=O)[C@](C)(Cc1ccccc1)NC(=O)[C@H](CO)NC(=O)[C@](C)(CO)NC(=O)[C@@H](NC(=O)[C@H](CC(=O)O)NC(=O)[C@H](CO)NC(=O)[C@@H](NC(=O)[C@](C)(Cc1ccccc1)NC(=O)[C@H](CO)NC(=O)CNC(=O)[C@H](CCC(=O)O)NC(=O)C(C)(C)NC(=O)[C@@H](N)Cc1c[nH]cn1)[C@@H](C)O)C(C)C)[C@@H](C)CC)C(C)C)C(C)C)C(N)=O)C(=O)O` [compound 32] (H-H[Aib]EGS[αMeF]TSDV[αMeS]S[αMeF]LEGEAA[αMeK]E[αMeF]IA[αMeF]VV[αMeK]GGK([γGlu-Palmitoyl])-NH2), the EC50 in assay [1] (setting [4]) was 36 pM; in assay [1] (setting [5]) it was 18 pM; in assay [1] (setting [6]), 27 pM; in assay [2] (setting [7]) it was at least 90 nM; in assay [2] (setting [8]) it was at least 90 nM; in assay [3] (setting [9]), at least 90 nM. In assay [3] (setting [10]), the EC50 was at least 90 nM.

Regarding `CCCCCCCCCCCCCCCCCC(=O)N[C@@H](CCC(=O)NCCCC[C@H](NC(=O)[C@H](C)NC(=O)[C@H](C)NC(=O)[C@H](CCC(=O)O)NC(=O)CNC(=O)[C@H](CCC(=O)O)NC(=O)[C@H](CC(C)C)NC(=O)[C@](C)(Cc1ccccc1)NC(=O)[C@H](CO)NC(=O)[C@](C)(CO)NC(=O)[C@@H](NC(=O)[C@H](CC(=O)O)NC(=O)[C@H](CO)NC(=O)[C@@H](NC(=O)[C@](C)(Cc1ccccc1)NC(=O)[C@H](CO)NC(=O)CNC(=O)[C@H](CCC(=O)O)NC(=O)C(C)(C)NC(=O)[C@@H](N)Cc1c[nH]cn1)[C@@H](C)O)C(C)C)C(=O)N[C@@H](CCC(=O)O)C(=O)N[C@@](C)(Cc1ccccc1)C(=O)N[C@H](C(=O)N[C@@H](C)C(=O)N[C@@](C)(Cc1ccccc1)C(=O)N[C@H](C(=O)N[C@H](C(=O)N[C@@](C)(CCCCN)C(=O)NCC(=O)NCC(N)=O)C(C)C)C(C)C)[C@@H](C)CC)C(=O)O` [compound 146], the EC50 in assay [1] (setting [4]) is 96 pM; in assay [1] (setting [5]), 42 pM; in assay [1] (setting [6]), 69 pM; in assay [2] (setting [7]) it was at least 28 nM; in assay [2] (setting [8]) it was at least 28 nM; in assay [3] (setting [9]), at least 28 nM. Moreover, in assay [3] (setting [10]), the EC50 was at least 28 nM.

As to `CCCCCCCCCCCC(=O)N[C@@H](CCC(=O)NCCOCCOCC(=O)NCCOCCOCC(=O)NCCCC[C@H](NC(=O)[C@H](Cc1ccc(O)cc1)NC(=O)[C@H](CO)NC(=O)[C@](C)(CO)NC(=O)[C@@H](NC(=O)[C@H](CC(=O)O)NC(=O)[C@H](CO)NC(=O)[C@@H](NC(=O)[C@](C)(Cc1ccccc1)NC(=O)[C@H](CO)NC(=O)CNC(=O)[C@H](CCC(=O)O)NC(=O)C(C)(C)NC(=O)[C@@H](N)Cc1c[nH]cn1)[C@@H](C)O)C(C)C)C(=O)N[C@@H](CCC(=O)O)C(=O)NCC(=O)N[C@@H](CCC(=O)O)C(=O)N[C@@H](C)C(=O)N[C@@H](C)C(=O)N[C@@](C)(CCCCN)C(=O)N[C@@H](CCCCNC(=O)COCCOCCNC(=O)COCCOCCNC(=O)CC[C@H](NC(=O)CCCCCCCCCCC)C(=O)O)C(=O)N[C@@H](Cc1ccccc1)C(=O)N[C@H](C(=O)N[C@@H](C)C(=O)N[C@@H](Cc1ccccc1)C(=O)N[C@@H](CCCCNC(=O)COCCOCCNC(=O)COCCOCCNC(=O)CC[C@H](NC(=O)CCCCCCCCCCC)C(=O)O)C(=O)N[C@H](C(=O)N[C@@H](CCC(=O)O)C(=O)NCC(=O)NCC(N)=O)C(C)C)[C@@H](C)CC)C(=O)O` [compound 486] (H-H[Aib]EGS[αMeF]TSDV[αMeS]SYK([AEEA-AEEA-γGlu-Lauroyl])EGEAA[αMeK]K([AEEA-AEEA-γGlu-Lauroyl])FIAFK([AEEA-AEEA-γGlu-Lauroyl])VEGG-NH2; N-terminus assumed), the EC50 amounted to 212 pM in assay [1] (tris-lipidated peptides, mean of n1 and n2, read-out: Primary assay EC50 Mean pM GLP-1R); 165 pM in assay [1] (tris-lipidated peptides, replicate n1, read-out: Primary assay EC50 GLP-1R n1); 259 pM in assay [1] (tris-lipidated peptides, replicate n2, read-out: Primary assay EC50 GLP-1R n2); 19.9 nM in assay [2] (tris-lipidated peptides, second replicate, read-out: Primary assay EC50 Gluc-R (n2)); 19.9 nM in assay [3] (tris-lipidated peptides, second replicate, read-out: Primary assay EC50 GIP-R (n2)).

For the molecule `CC[C@H](C)[C@H](NC(=O)[C@](C)(Cc1ccccc1)NC(=O)[C@H](CCC(=O)O)NC(=O)[C@H](CCCCNC(=O)CC[C@H](NC(=O)CC[C@H](NC(=O)CC[C@H](NC(=O)CCCCCCCCCCCOc1ccc(C(=O)O)cc1)C(=O)O)C(=O)O)C(=O)O)NC(=O)[C@H](C)NC(=O)[C@H](C)NC(=O)[C@H](CCC(=O)O)NC(=O)CNC(=O)[C@H](CCC(=O)O)NC(=O)[C@H](CC(C)C)NC(=O)[C@](C)(Cc1ccccc1)NC(=O)[C@H](CO)NC(=O)[C@](C)(CO)NC(=O)[C@@H](NC(=O)[C@H](CC(=O)O)NC(=O)[C@H](CO)NC(=O)[C@@H](NC(=O)[C@](C)(Cc1ccccc1)NC(=O)[C@H](CO)NC(=O)CNC(=O)[C@H](CCC(=O)O)NC(=O)C(C)(C)NC(=O)[C@@H](N)Cc1c[nH]cn1)[C@@H](C)O)C(C)C)C(=O)N[C@@H](C)C(=O)N[C@@](C)(Cc1ccccc1)C(=O)N[C@H](C(=O)N[C@H](C(=O)N[C@@](C)(CCCCN)C(=O)NCC(=O)NCC(N)=O)C(C)C)C(C)C` [compound 139], the EC50 in assay [1] (setting [4]) is 29 pM; in assay [1] (setting [5]), 22 pM; in assay [1] (setting [6]), 25.5 pM; in assay [2] (Primary assay EC50 Gluc-R (n1), cAMP assay, first determination (n1)) it was at least 26 nM; in assay [2] (read-out: Primary assay EC50 Gluc-R (n2), cAMP assay, second determination (n2)), at least 26 nM; in assay [3] (Primary assay EC50 GIP-R (n1), cAMP assay, first determination (n1)), at least 26 nM. Also, the EC50 in assay [3] (read-out: Primary assay EC50 GIP-R (n2), cAMP assay, second determination (n2)) is at least 26 nM.

Turning to `CCCCCCCCCCCCCCCCCC(=O)NCCCCCC(=O)NCCCC[C@H](NC(=O)[C@H](C)NC(=O)[C@H](C)NC(=O)[C@H](CCC(=O)O)NC(=O)CNC(=O)[C@H](CCC(=O)O)NC(=O)[C@H](CC(C)C)NC(=O)[C@](C)(Cc1ccccc1)NC(=O)[C@H](CO)NC(=O)[C@](C)(CO)NC(=O)[C@@H](NC(=O)[C@H](CC(=O)O)NC(=O)[C@H](CO)NC(=O)[C@@H](NC(=O)[C@](C)(Cc1ccccc1)NC(=O)[C@H](CO)NC(=O)CNC(=O)[C@H](CCC(=O)O)NC(=O)C(C)(C)NC(=O)[C@@H](N)Cc1c[nH]cn1)[C@@H](C)O)C(C)C)C(=O)N[C@@H](CCC(=O)O)C(=O)N[C@@](C)(Cc1ccccc1)C(=O)N[C@H](C(=O)N[C@@H](C)C(=O)N[C@@](C)(Cc1ccccc1)C(=O)N[C@H](C(=O)N[C@H](C(=O)N[C@@](C)(CCCCN)C(=O)NCC(=O)NCC(N)=O)C(C)C)C(C)C)[C@@H](C)CC` [compound 149], the EC50 is 81 pM in assay [1] (setting [4]); 51 pM in assay [1] (setting [5]); 66.2 pM in assay [1] (setting [6]); at least 28 nM in assay [2] (setting [7]); at least 28 nM in assay [2] (setting [8]); at least 28 nM in assay [3] (setting [9]). Besides, the EC50 in assay [3] (setting [10]) was at least 28 nM.
